This assay deals with human OX2R (Homo sapiens (Human), UniProt O43614). Put plainly: IPOne (IP-1) assay in CHO cells expressing human OX2R. In kind it is cell-based. Particulars: for Emax: CHO; for IC50: CHO cells expressing human OX2R, IP-One detection, 2 hours incubation, EC50 = inflection point of four parameter logistic fit, read-out: hOX2R_IP_IC50. An excerpt:
The utility of the compounds in accordance with the present invention as orexin receptor OX1R and/or OX2R agonists may be readily determined without undue experimentation by methodology well known in the art. Both the OX1R and/or OX2R G-coupled protein receptors (GPCRs) couple through the Gαq signaling pathway, which ultimately promotes calcium mobilization via inositol triphosphate (IP3) production. The half-life of IP-3 is relatively short, being rapidly metabolized to inositol monophosphate (IP-1), which can be readily detected using a commercially available assay kit (IP-One; Cisbio; cat #621PAPEC) coupled with a cell line expressing the target receptor(s) of interest. The utility of the compounds in accordance with the present invention as orexin receptor OX1R and/or OX2R agonists may be determined utilizing this assay.
In a typical experiment, the OX1 and OX2 receptor agonist activity is determined in accordance with the following general experimental method. Chinese hamster ovary (CHO) cells expressing human OX1R and/or the human OX2R were grown in Iscove's modified DMEM containing glutaMAX™, 1% G418, 100 U/mL penicillin, 100 μg/mL streptomycin and 10% heat-inactivated qualified fetal bovine serum (FBS). The OX2R cells were seeded at 10,000 cells/well/50 μL and the OX1R cells were seeded at 20,000 cells/well/50 μL into 384-well white tissue culture plates (Greiner; cat #781080). All cell/media reagents were from GIBCO-Invitrogen Corp. The seeded cell plate(s) were incubated at 37° C. with 5% CO2 and 85% humidity for 20-24 hours. On the day of the assay, assay-ready compound plates were prepared using an acoustic liquid handler (ECHO; Labcyte), which dispensed sufficient volume of test compound stock (10 mM in DMSO) or 100% DMSO to prepare 10 point, ½-log dilutions in a final volume of 202.5 nL/well in all test wells of a 384-well diamond plate (Labcyte). Following completion of assay-ready plates, importantly, the next three steps were performed with minimal delay: 1) 20 μl of 1× stimulation buffer was added to the compound plate using a Multidrop Combi (small cassette, Thermo Fisher Scientific cat #24073290); 2) culture medium was removed from the cell plate using the Bluewasher plate washer (gentle spin; BlueCatBio); 3) 14 μl of compound/stimulation buffer mixture was added to the cell plate using a Bravo liquid handler (Agilent) prior to incubating cell plates at 37° C. with 5% CO2 and 85% humidity for 1 or 2 hours (OX1R and OX2R, respectively). During this incubation, IP-one detection reagents were prepared (38:1:1 lysis buffer:D2:AB-cryptate reagents). Six μL of mixed detection reagents were added to the cell plate using a Multidrop Combi (small cassette, Thermo Fisher Scientific cat #24073290) and incubated 60 minutes at room temperature in the dark. Fluorescence signal was detected using an Envision plate reader (Perkin Elmer) [LANCE/DELFIA Dual Enh (Em: APC 665; Ex: Cy5 620)].
For each compound, data were fit to a four parameter logistic fit (ActivityBase software) and the EC50 was reported as the inflection point of the resulting curve. Percent effect for each test compound was determined as the percentage of sample raw value/mean max effect, where the mean max effect was derived from the mean raw value of 32 control wells per assay plate (using Orexin A (cat #003-30) at 1 μM for human OX1R and a reference compound at 1 uM with 100% activity previously established by comparison to Orexin A for human OX2R). The intrinsic orexin receptor agonist activity of a compound which may be used in the present invention may be determined by these assays.

The mark [1] stands for this setting: percentage of mean max effect of a reference compound at 1 uM (100% activity by comparison to Orexin A), human OX2R, read-out: Emax (%).

Results on 21 molecules are retold here after patent publication US11680060B2, “Bicycloheptane pyrrolidine orexin receptor agonists” (Merck Sharp & Dohme LLC, priority 2020, dated 2023).

The term Emax denotes the size of the effect at its maximum, as opposed to the concentration needed.

Like-named read-outs stand apart in the source and are kept apart here.

Sequence of human OX2R (O43614 whole entry): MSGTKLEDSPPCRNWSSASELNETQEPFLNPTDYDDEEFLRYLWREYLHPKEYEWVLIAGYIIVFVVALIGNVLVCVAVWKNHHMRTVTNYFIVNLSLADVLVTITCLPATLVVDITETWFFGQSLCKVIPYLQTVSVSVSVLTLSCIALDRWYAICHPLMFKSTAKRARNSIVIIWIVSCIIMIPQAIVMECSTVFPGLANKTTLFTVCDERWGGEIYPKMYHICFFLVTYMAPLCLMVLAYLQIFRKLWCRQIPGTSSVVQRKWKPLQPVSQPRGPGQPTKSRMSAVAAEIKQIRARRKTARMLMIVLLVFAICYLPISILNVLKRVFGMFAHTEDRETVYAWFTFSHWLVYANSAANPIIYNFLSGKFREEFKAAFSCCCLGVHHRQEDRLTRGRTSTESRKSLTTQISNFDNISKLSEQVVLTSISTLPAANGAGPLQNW

As to `C[C@@H]1C[C@H](NS(C)(=O)=O)[C@H](CO[C@H]2CC[C@@]3(c4ncc(F)cn4)C[C@H]3C2)N1C(=O)OCCC(F)F` [Example 52, 3,3-difluoropropyl (2R,3S,5R)-2-((((1S,3S,6R)-6-(5-fluoropyrimidin-2-yl)bicyclo[4.1.0]heptan-3-yl)oxy)methyl)-5-methyl-3-(methylsulfonamido)pyrrolidine-1-carboxylate], the Emax under setting [1] is 102%.

For the molecule `CCCS(=O)(=O)N[C@H]1C[C@@H](C)N(C(=O)OC)[C@H]1CO[C@H]1CC[C@@]2(c3ncc(F)cn3)C[C@H]2C1` [Example 33, methyl (2R,3S,5R)-2-((((1S,3S,6R)-6-(5-fluoropyrimidin-2-yl)bicyclo[4.1.0]heptan-3-yl)oxy)methyl)-5-methyl-3-(propylsulfonamido)pyrrolidine-1-carboxylate], under setting [1], the Emax was determined as 105%.

Regarding `C[C@@H]1C[C@H](NS(C)(=O)=O)[C@H](CO[C@H]2CC[C@@]3(c4ncc(F)cn4)C[C@H]3C2)N1C(=O)OC[C@H]1[C@H](C)C1(F)F` [Example 55, ((1R,3S)-2,2-difluoro-3-methylcyclopropyl)methyl (2R,3S,5R)-2-((((1S,3S,6R)-6-(5-fluoropyrimidin-2-yl)bicyclo[4.1.0]heptan-3-yl)oxy)methyl)-5-methyl-3-(methylsulfonamido)pyrrolidine-1-carboxylate], the Emax under setting [1] is 105%.

For the molecule `COC(=O)N1[C@H](C)C[C@H](NS(=O)(=O)N(C)C)[C@@H]1COC1CCC2(c3cnccn3)CC2C1` (single isomer, unassigned) [Example 14], the “Emax (%)” value (percentage of mean max effect of a reference compound at 1 uM (100% activity by comparison to Orexin A), human OX2R) is reported as 93.5%.

For `COC(=O)N1[C@H](C(F)F)C[C@H](NS(C)(=O)=O)[C@@H]1CO[C@H]1CC[C@@]2(c3ncc(F)cn3)C[C@H]2C1` (single isomer, unassigned) [Example 127], the IC50 is 1.7 nM. Under setting [1], the Emax was determined as 101%.

As to `CC(C)OC(=O)N1[C@H](C)C[C@H](NS(=O)(=O)N(C)C)[C@@H]1CO[C@H]1CC[C@@]2(c3ncc(F)cn3)C[C@H]2C1` (single isomer, unassigned) [Example 161], the IC50 worked out at 0.8 nM. For the same molecule, the Emax under setting [1] was found to be 102%.

For the molecule `CC(C)OC(=O)N1[C@H](C)C[C@H](NS(=O)(=O)N(C)C)[C@@H]1COC1CCC2(c3ncc(F)cn3)CC2C1` (stereo partly drawn) [Example 164, isopropyl (2R,3S,5R)-3-((N,N-dimethylsulfamoyl)amino)-2-(((6-(5-fluoropyrimidin-2-yl)bicyclo[4.1.0]heptan-3-yl)oxy)methyl)-5-methylpyrrolidine-1-carboxylate], the maximal effect (Emax) under setting [1] was 100%.

For `COC(=O)N1[C@@H]2CCC[C@@H]2[C@H](NS(C)(=O)=O)[C@@H]1CO[C@H]1CC[C@@]2(c3ncc(F)cn3)C[C@H]2C1` (single isomer, unassigned) [Example 131], the IC50 was determined as 1.8 nM. Further, the Emax under setting [1] is 101%.

With `COC(=O)N1[C@H](C)C[C@H](NS(C)(=O)=O)[C@@H]1CO[C@H]1CC[C@@]2(c3ncccn3)C[C@H]2C1` (single isomer, unassigned) [Example 181], the IC50 was 4.5 nM. Also, the Emax under setting [1] came out at 101%.

As to `COC(=O)N1[C@H](C)C[C@H](NS(=O)(=O)C(F)F)[C@@H]1COC1CCC2(c3ncccn3)CC2C1` (mixture of isomers) [Example 67, methyl (2R,3S,5R)-3-((difluoromethyl)sulfonamido)-5-methyl-2-(((6-(pyrimidin-2-yl)bicyclo[4.1.0]heptan-3-yl)oxy)methyl)pyrrolidine-1-carboxylate], the IC50 turned out to be 3.4 nM. Besides, the Emax under setting [1] was found to be 101%.

In the case of `CC(C)OC(=O)N1CCC[C@H](NS(C)(=O)=O)[C@@H]1CO[C@H]1CC[C@@]2(c3ncc(F)cn3)C[C@H]2C1` (single isomer, unassigned) [Example 125], the IC50 was found to be 0.95 nM. Moreover, the Emax under setting [1] was 103%.

Turning to `COC(=O)N1[C@H](C)C[C@H](NS(=O)(=O)CF)[C@@H]1COC1CCC2(c3ncc(Br)cn3)CC2C1` (stereo partly drawn) [Example 89, methyl (2R,3S,5R)-2-(((6-(5-bromopyrimidin-2-yl)bicyclo[4.1.0]heptan-3-yl)oxy)methyl)-3-((fluoromethyl)sulfonamido)-5-methylpyrrolidine-1-carboxylate], under setting [1], the Emax stood at 104%.

Consider `COC(=O)N1[C@H](C)C[C@H](NS(C)(=O)=O)[C@@H]1CO[C@H]1CC[C@@]2(c3ncc(C)cn3)C[C@H]2C1` (single isomer, unassigned) [Example 156], for which the IC50 was 19.2 nM. Under setting [1], the Emax was 102%.

Turning to `COC(=O)N1[C@H](C)C[C@H](NS(=O)(=O)N2CCC2)[C@@H]1CO[C@@H]1CC[C@]2(c3ncc(F)cn3)C[C@@H]2C1` [Example 43, methyl (2R,3S,5R)-3-(azetidine-1-sulfonamido)-2-((((1R,3R,6S)-6-(5-fluoropyrimidin-2-yl)bicyclo[4.1.0]heptan-3-yl)oxy)methyl)-5-methylpyrrolidine-1-carboxylate], the Emax under setting [1] stood at 97.8%.

As to `CC(C)OC(=O)N1CCC[C@H](NS(=O)(=O)C(F)F)[C@@H]1CO[C@H]1CC[C@@]2(c3ncc(F)cn3)C[C@H]2C1` [Example 121, isopropyl (2R,3S)-3-((difluoromethyl)sulfonamido)-2-((((1S,3S,6R)-6-(5-fluoropyrimidin-2-yl)bicyclo[4.1.0]heptan-3-yl)oxy)methyl)piperidine-1-carboxylate], the Emax under setting [1] worked out at 108%.

As to `CC(C)OC(=O)N1[C@H](C)C[C@H](NS(=O)(=O)C(F)F)[C@@H]1CO[C@H]1CC[C@@]2(c3ncc(F)cn3)C[C@H]2C1` (single isomer, unassigned) [Example 90], the IC50 was found to be 1.2 nM. Moreover, under setting [1], the Emax worked out at 101%.

`COC(=O)N1[C@H](C)C[C@H](NS(C)(=O)=O)[C@@H]1COC1CCC2(c3ncc(Cl)c(OC)n3)CC2C1` (stereo partly drawn) [Example 70, methyl (2R,3S,5R)-2-(((6-(5-chloro-4-methoxypyrimidin-2-yl)bicyclo[4.1.0]heptan-3-yl)oxy)methyl)-5-methyl-3-(methylsulfonamido)pyrrolidine-1-carboxylate]: the maximal effect (Emax) was determined as 101% and the IC50 stood at 33.5 nM.

Take `COC(=O)N1[C@H](C)C[C@H](NS(=O)(=O)N(C)C)[C@@H]1COC1CCC2(c3cnccn3)CC2C1` (single isomer, unassigned) [Example 11]: the Emax under setting [1] was found to be 96.1%.

Consider `CC(C)OC(=O)N1[C@H](C)C[C@H](NS(=O)(=O)CF)[C@@H]1CO[C@H]1CC[C@@]2(c3ncc(Br)cn3)C[C@H]2C1` (single isomer, unassigned) [Example 103], for which the IC50 amounted to 4.3 nM. The Emax under setting [1] came to 101%.

For `CC(C)OC(=O)N1[C@H](C)C[C@H](NS(=O)(=O)C(F)F)[C@@H]1COC1CCC2(c3ncc(F)cn3)CC2C1` (stereo partly drawn) [Example 109, isopropyl (2R,3S,5R)-3-((difluoromethyl)sulfonamido)-2-(((6-(5-fluoropyrimidin-2-yl)bicyclo[4.1.0]heptan-3-yl)oxy)methyl)-5-methylpyrrolidine-1-carboxylate], the Emax under setting [1] was determined as 105%.

With `CC(C)OC(=O)N1[C@H](C(F)F)C[C@H](NS(C)(=O)=O)[C@@H]1CO[C@H]1CC[C@@]2(c3ncc(F)cn3)C[C@H]2C1` [Example 119, isopropyl (2R,3S,5S)-5-(difluoromethyl)-2-((((1S,3S,6R)-6-(5-fluoropyrimidin-2-yl)bicyclo[4.1.0]heptan-3-yl)oxy)methyl)-3-(methylsulfonamido)pyrrolidine-1-carboxylate], under setting [1], the Emax stood at 100%.
